Test [1] concerns CFPAC-1 pancreatic cancer cells. The experiment in a line: In vitro cell viability, CFPAC-1. The conditions noted are these: for In vitro relative inhibitory potency in comparison to MIA-602, CFPAC-1: Table 3B, 5 μM for 72 H, MIA-602 = 1. Format: cell-based, human. In short, it runs like this:
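Potency is reported as percent inhibition of viability compared with the reference antagonist MIA602, measured with CellTiter 96 aqueous one solution reagent. Serum-starved cells (0.5% FBS, 24 h) were treated for 72 h, mostly at 5 μM, otherwise 2 μM.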

The subject of test [2] is pancreatic cancer PANC-1 xenograft. The experiment in a line: Xenograft tumor growth in nude mice, PANC-1. Format: in vivo. The conditions noted are these: Table 4A, Pancreatic Ca PANC-1, 7 weeks; for % Inhibition: vs control. On the procedure:
(§1) The peptides' activity was compared with GHRH antagonist MIA-602. All statistical analyzses were performed from comparing GHRA antagonists to non-treated tumor (control).
(§2) Peptides and chemicals. GHRH antagonists MIA-602 and AVR-GHRH antagonists (see Table 2 above) were synthesized by solid phase methods and purified by HPLC. The peptides were dissolved in DMSO and further diluted in 10% 1,2-propanediol. The final concentration of peptides was 50 µg/ml in 10% 1,2-propanediol containing 0.1% of DMSO.
(§3) Cell culture. Human cancer cell lines including pancreatic (PANC-1 and CFPAC-1), lung (HCC827 and H460), stomach (NCI-N87), prostate (PC3), brest (MX-1 and HCC-1806), colorectal (HT-29), and ovarian (SK-OV-3 and OVCAR-3) were obtained from the American Type Culture Collection (ATCC) and cultured at 37° C. in a humidified 95% air/5% CO2 atmosphere in the medium recommended by ATCC.
(§4) Xenograft models of human cancers in nude mice. Female athymic (NCr nu/nu) nude mice, 5- to 6-weeks-old, obtained from the Envigo labs (Tampa, Fla.), were housed in laminar airflow cabinets under pathogen-free conditions with a 12-h light/12-h dark schedule, and were fed autoclaved standard chow and water. To generate mice with xenografted tumors, tumor xenografts were initiated by subcutaneous (s.c.) injection of 107 human cancer cells into female nude mice. After about 4 weeks the resulting tumors were dissected and collected after removing necrosis tissues. The tumors were then cut into particles with size of 3 mm3 and transplanted s.c. by trocar needle into experimental animals. When tumors grew to the size of 50-60 mm3 (by volume), mice were randomized into groups and treated daily for 4-8 weeks by subcutaneous administration of 5 μg of GHRH antagonists MIA-602 or AVR-compounds (2-10 μg as indicated), or vehicle solutions (0.1% DMSO in 10% 1,2-propanediol) respectively. Tumor sizes were measured weekly.
(§5) Statistical analysis. One-way ANOVA followed by Bonferroni comparison were performed. Data are expressed as Mean±SEM. To determine statistical significance between animal groups, two-tailed Student's t-test was conducted. Differences were considered significant when p<0.05.
(§6) Results. […] FIG. 1A-N represents in vivo inhibition of tumor growth during the treatment with GHRH antagonist MIA-602 and selected AVR antagonists in nude mice xenografted with various human tumors including pancreatic cancer PANC-1 (FIG. 1A) and CFPAC-1 (FIG. 1I); lung cancer HCC827 (FIGS. 1B, C) and H460 (FIG. 1H); stomach cancer N87 (FIGS. 1D-F); colon cancer HT-29 (FIG. 1G); breast cancer MX-1 and HCC-1806 (FIGS. 1J, K); ovarian cancer SK-OV-3 and OVACAR-3 (FIGS. 1 L, M) and prostate cancer PC3 (FIG. 1N). See also Table 5.

For test [3], the system named is ovarian cancer SK-OV-3 xenograft. The experiment in a line: Xenograft tumor growth in nude mice, SK-OV-3. The test is classed as in vivo. The conditions noted are these: Table 4L, Ovarian Ca SK-OV-3, 7 weeks; for % Inhibition: vs control. The protocol: as §1, §2, §3, §4, §5, §6
In test [4] the test system is prostate cancer PC3 xenograft. The experiment in a line: Xenograft tumor growth in nude mice, PC3. The test is classed as in vivo. Particulars: Table 4N, Prostate Ca PC3, 8 weeks, 5 μg/day s.c. On the procedure: as §1, §2, §3, §4, §5, §6
Test [5] has as its system breast cancer MX-1 xenograft. The experiment in a line: Xenograft tumor growth in nude mice, MX-1. The test is classed as in vivo. The conditions noted are these: Table 4J, Breast Ca MX-1, 4 weeks, 5 μg/day s.c. The protocol:
as §1, §2, §3, §4, §5, §6

This note sets out measurements from patent publication US20210395327A1, “Growth Hormone-Releasing Hormone Antagonists and Uses Thereof” (United States Government As Represented By The Department …, priority 2019, published 2021).

Non-standard residues stand in square brackets, D forms with d. Residues, ends and D or L forms follow the SMILES beside them. *: point of attachment. Phenylacetyl(2,3,4,5,6-F5) = O=C(Cc1c(F)c(F)c(F)c(F)c1F)*; Phe(F5) = N[C@@H](Cc1c(F)c(F)c(F)c(F)c1F)C(=O)O; Phe(4-Cl) = N[C@@H](Cc1ccc(Cl)cc1)C(=O)O; hArg = N=C(N)NCCCC[C@H](N)C(=O)O; 12Ado = NCCCCCCCCCCCC(=O)O; Nle = CCCC[C@H](N)C(=O)O; Orn = NCCC[C@H](N)C(=O)O; Abu = CC[C@H](N)C(=O)O

For the compound `CCCC[C@H](NC(=O)[C@@H](NC(=O)[C@H](CC(=O)O)NC(=O)[C@H](CCC(N)=O)NC(=O)[C@H](CC(C)C)NC(=O)[C@H](CC(C)C)NC(=O)[C@H](CCCCN)NC(=O)[C@H](CCCNC(=N)N)NC(=O)[C@H](C)NC(=O)[C@H](CO)NC(=O)[C@H](CC(C)C)NC(=O)[C@H](CCC(N)=O)NC(=O)[C@H](CC)NC(=O)[C@H](CC(C)C)NC(=O)[C@@H](NC(=O)[C@H](CCCCN)NC(=O)[C@H](CCCNC(=N)N)NC(=O)[C@H](Cc1ccc(OC)cc1)NC(=O)[C@H](CCCCNC(=N)N)NC(=O)[C@H](C)NC(=O)[C@@H](NC(=O)[C@H](Cc1c(F)c(F)c(F)c(F)c1F)NC(=O)[C@@H](NC(=O)[C@H](C)NC(=O)[C@H](CC(=O)O)NC(=O)[C@@H](CCCNC(=N)N)NC(=O)[C@H](Cc1ccc(O)cc1)NC(=O)CCCCCCCCCCCNC(=O)Cc1c(F)c(F)c(F)c(F)c1F)[C@@H](C)CC)[C@@H](C)O)C(C)C)[C@@H](C)CC)C(=O)N[C@H](CCCNC(=N)N)C(=O)N[C@@H](CCCCNC(=N)N)C(=O)NC` [AVR-235] ({Phenylacetyl(2,3,4,5,6-F5)-12Ado}-Y[dR]DAI[Phe(F5)]TA[hArg]Y(Me)RKVL[Abu]QLSARKLLQDI[Nle][dR][hArg]-NHMe), the “In vitro relative inhibitory potency in comparison to MIA-602, CFPAC-1” value (“In vitro relative inhibitory potency” below) in test [1] was found to be 1.497. For the same compound, the “relative inhibitory potency in comparison to MIA-602, Pancreatic CFPAC-1” value in test [1] (antagonist 5 μM for 72 h, cell proliferation assay, MIA602 = 1) came out at 1.399.

As for `CCCC[C@H](NC(=O)[C@@H](NC(=O)[C@H](CC(=O)O)NC(=O)[C@H](CCC(N)=O)NC(=O)[C@H](CC(C)C)NC(=O)[C@H](CC(C)C)NC(=O)[C@H](CCCN)NC(=O)[C@H](Cc1c[nH]cn1)NC(=O)[C@H](C)NC(=O)[C@H](CO)NC(=O)[C@H](CC(C)C)NC(=O)[C@H](CCC(N)=O)NC(=O)[C@H](CC)NC(=O)[C@H](CC(C)C)NC(=O)[C@@H](NC(=O)[C@H](CCCN)NC(=O)[C@H](Cc1c[nH]cn1)NC(=O)[C@H](Cc1c(F)c(F)c(F)c(F)c1F)NC(=O)[C@H](CCCCNC(=N)N)NC(=O)[C@H](C)NC(=O)[C@@H](NC(=O)[C@H](Cc1ccc(Cl)cc1)NC(=O)[C@@H](NC(=O)[C@H](C)NC(=O)[C@H](CC(=O)O)NC(=O)[C@@H](CCCNC(=N)N)NC(=O)[C@H](Cc1ccc(O)cc1)NC(=O)CCCCCCCCCCCNC(=O)Cc1c(F)c(F)c(F)c(F)c1F)[C@@H](C)CC)[C@@H](C)O)C(C)C)[C@@H](C)CC)C(=O)N[C@H](CCCNC(=N)N)C(=O)N[C@@H](CCCCNC(=N)N)C(=O)NCCCCCCCCCCCC(=O)NC` [AVR-543, 5FPhAC-Ada-Tyr-DArg-Asp-Ala-Ile-Cpa-Thr-Ala-Har-5FPhe-His-Orn-Val-Leu-Abu-Gln-Leu-Ser-Ala-His-Orn-Leu-Leu-Gln-Asp-Ile-Nle-DArg-Har-Ada-NHCH3] ({Phenylacetyl(2,3,4,5,6-F5)-12Ado}-Y[dR]DAI[Phe(4-Cl)]TA[hArg][Phe(F5)]H[Orn]VL[Abu]QLSAH[Orn]LLQDI[Nle][dR][hArg][12Ado]-NHMe), in test [1], the “In vitro relative inhibitory potency” value stood at 2.05.

Consider `CCCC[C@H](NC(=O)[C@@H](NC(=O)[C@H](CC(=O)O)NC(=O)[C@H](CCC(N)=O)NC(=O)[C@H](CC(C)C)NC(=O)[C@H](CC(C)C)NC(=O)[C@H](CCCCN)NC(=O)[C@H](CCCNC(=N)N)NC(=O)[C@H](C)NC(=O)[C@H](CO)NC(=O)[C@H](CC(C)C)NC(=O)[C@H](CCC(N)=O)NC(=O)[C@H](CC)NC(=O)[C@H](CC(C)C)NC(=O)[C@@H](NC(=O)[C@H](CCCCN)NC(=O)[C@H](CCCNC(=N)N)NC(=O)[C@H](Cc1ccc(OC)cc1)NC(=O)[C@H](CCCCNC(=N)N)NC(=O)[C@H](CC(N)=O)NC(=O)[C@@H](NC(=O)[C@H](Cc1ccc(Cl)cc1)NC(=O)[C@@H](NC(=O)[C@H](C)NC(=O)[C@H](CC(=O)O)NC(=O)[C@@H](CCCNC(=N)N)NC(=O)[C@H](Cc1ccc(O)cc1)NC(=O)CCCCCCCCCCCNC(=O)Cc1c(F)c(F)c(F)c(F)c1F)[C@@H](C)CC)[C@@H](C)O)C(C)C)[C@@H](C)CC)C(=O)N[C@H](CCCNC(=N)N)C(=O)N[C@@H](CCCCNC(=N)N)C(=O)NCCCCCCCCCCCC(N)=O` [AVR-333, 5FPhAC-Ada-Tyr-DArg-Asp-Ala-Ile-Cpa-Thr-Asn-Har-Tyr(Me)-Arg-Lys-Val-Leu-Abu-Gln-Leu-Ser-Ala-Arg-Lys-Leu-Leu-Gln-Asp-Ile-Nle-DArg-Har-Ada-NH2] ({Phenylacetyl(2,3,4,5,6-F5)-12Ado}-Y[dR]DAI[Phe(4-Cl)]TN[hArg]Y(Me)RKVL[Abu]QLSARKLLQDI[Nle][dR][hArg][12Ado]-NH2), for which, in test [2] (5 μg/day s.c.), the “Tumor Growth %” value came out at 1384.4% and the “% Inhibition” value is recorded as 48.2%. In addition, the “In vitro relative inhibitory potency” value in test [1] turned out to be 2.288.

`CCCC[C@H](NC(=O)[C@@H](NC(=O)[C@H](CC(=O)O)NC(=O)[C@H](CCC(N)=O)NC(=O)[C@H](CC(C)C)NC(=O)[C@H](CC(C)C)NC(=O)[C@H](CCCCN)NC(=O)[C@H](CCCNC(=N)N)NC(=O)[C@H](C)NC(=O)[C@H](CO)NC(=O)[C@H](CC(C)C)NC(=O)[C@H](CCC(N)=O)NC(=O)[C@H](CC)NC(=O)[C@H](CC(C)C)NC(=O)[C@@H](NC(=O)[C@H](CCCCN)NC(=O)[C@H](CCCNC(=N)N)NC(=O)[C@H](Cc1ccc(OC)cc1)NC(=O)[C@H](CCCCNC(=N)N)NC(=O)[C@H](C)NC(=O)[C@@H](NC(=O)[C@H](Cc1c(F)c(F)c(F)c(F)c1F)NC(=O)[C@@H](NC(=O)[C@H](C)NC(=O)[C@H](CC(=O)O)NC(=O)[C@@H](CCCNC(=N)N)NC(=O)[C@H](Cc1ccc(O)cc1)NC(=O)CCCCCCCCCCCNC(=O)Cc1c(F)c(F)c(F)c(F)c1F)[C@@H](C)CC)[C@@H](C)O)C(C)C)[C@@H](C)CC)C(=O)N[C@H](CCCNC(=N)N)C(=O)N[C@@H](CCCCNC(=N)N)C(=O)NCCCCCCCCCCCC(N)=O` [AVR-352, 5FPhAC-Ada-Tyr-DArg-Asp-Ala-Ile-5FPhe-Thr-Ala-Har-Tyr(Me)-Arg-Lys-Val-Leu-Abu-Gln-Leu-Ser-Ala-Arg-Lys-Leu-Leu-Gln-Asp-Ile-Nle-DArg-Har-Ada-NH2] ({Phenylacetyl(2,3,4,5,6-F5)-12Ado}-Y[dR]DAI[Phe(F5)]TA[hArg]Y(Me)RKVL[Abu]QLSARKLLQDI[Nle][dR][hArg][12Ado]-NH2): the results for the “Tumor Size (mm3)” value in test [3] (2.5 μg/day s.c.), in test [3] (5 μg/day s.c.) and in test [4] were 718.4 mm3, 422.3 mm3 and 413.3 mm3, respectively. In addition, the “% Inhibition” value came out at 45.0% in test [3] (2.5 μg/day s.c.); 67.7% in test [3] (5 μg/day s.c.); 22.4% in test [2] (2.5 μg/day s.c.); 45.4% in test [2] (5 μg/day s.c.); 50.0% in test [4] (vs control); 39.5% in test [5] (vs control). The “Tumor Growth %” value in test [2] (2.5 μg/day s.c.) amounted to 2073.0%; in test [2] (5 μg/day s.c.), 1456.9%; in test [5], 673.2%. Further, in test [1], the “In vitro relative inhibitory potency” value was 1.576.
